Experimental data published in the supplement of paper PMC11061612.

How the values were obtained:
Capivasertib = compound: C1CN(CCC1(C(=O)N[C@@H](CCO)C2=CC=C(C=C2)Cl)N)C3=NC=NC4=C3C=CN4 [Capivasertib]; conditions: max 10 µM
Outline: (§1)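 Cancer cell lines were seeded in 1536-well plates in 7.5 μl DMEM/F12 or RPMI with 10% FBS, held 24 hours at 37°C and 5% CO2, then dosed for 72 hours (final DMSO typically 0.2%). Viability was read by CellTiter-Glo 2.0 luminescence and scaled between blank-well and DMSO-well means. The single-agent IC50 comes from dose responses fitted to a two-parameter logistic curve with a non-linear mixed effects model.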

Selumetinib = compound: Cn1cnc2c(F)c(Nc3ccc(Br)cc3Cl)c(C(=O)NOCCO)cc21 [Selumetinib]; conditions: max 10 µM
Outline: as §1

AZD2811 = compound: CCN(CCO)CCCOc1ccc2c(Nc3cc(CC(=O)Nc4cccc(F)c4)[nH]n3)ncnc2c1 [AZD2811]; conditions: max 1 µM
Outline: as §1

Venetoclax = compound: CC1(C)CCC(CN2CCN(c3ccc(C(=O)NS(=O)(=O)c4ccc(NCC5CCOCC5)c([N+](=O)[O-])c4)c(Oc4cnc5[nH]ccc5c4)c3)CC2)=C(c2ccc(Cl)cc2)C1 [Venetoclax]; conditions: max 1 µM
Outline: as §1

Prexasertib = compound: COc1cccc(OCCCN)c1-c1cc(Nc2cnc(C#N)cn2)n[nH]1 [Prexasertib]; conditions: max 1 µM
Outline: as §1

AZD4320 = compound: CN(CC[C@H](CSC1=CC=CC=C1)NC2=C(C=C(C=C2)S(=O)(=O)NC(=O)C3=CC=C(C=C3)N4CCC(CC4)[C@H](C5=CC=CC=C5C6=CC=C(C=C6)Cl)O)S(=O)(=O)C(F)(F)F)CCO [AZD4320]; conditions: max 1 µM
Outline: as §1

AZD5991 = compound: Cc1c2c(nn1C)CSCc1cc(n(C)n1)CSc1cc(c3ccccc3c1)OCCCc1c(C(=O)O)n(C)c3c-2c(Cl)ccc13 [AZD5991]; conditions: max 1 µM
Outline: as §1

AZD8186 = compound: C[C@@H](Nc1cc(F)cc(F)c1)c1cc(C(=O)N(C)C)cc2c(=O)cc(N3CCOCC3)oc12 [AZD8186]; conditions: max 3 µM
Outline: as §1

Dasatinib = compound: CC1=C(C(=CC=C1)Cl)NC(=O)C2=CN=C(S2)NC3=CC(=NC(=N3)C)N4CCN(CC4)CCO [Dasatinib]; conditions: max 2 µM
Outline: as §1

Taselisib = compound: Cc1nc(-c2cn3c(n2)-c2ccc(-c4cnn(C(C)(C)C(N)=O)c4)cc2OCC3)n(C(C)C)n1 [Taselisib]; conditions: max 10 µM
Outline: as §1

AZD1775 = compound: C=CCn1c(=O)c2cnc(Nc3ccc(N4CCN(C)CC4)cc3)nc2n1-c1cccc(C(C)(C)O)n1 [AZD1775]; conditions: max 3 µM
Outline: as §1

AZD1390 = compound: CC(C)n1c(=O)n(C)c2cnc3cc(F)c(-c4ccc(OCCCN5CCCCC5)nc4)cc3c21 [AZD1390]; conditions: max 0.3 µM
Outline: as §1

Doxorubicin = compound: COc1cccc2c1C(=O)c1c(O)c3c(c(O)c1C2=O)C[C@@](O)(C(=O)CO)C[C@@H]3O[C@H]1C[C@H](N)[C@H](O)[C@H](C)O1 [Doxorubicin]; conditions: max 1 µM
Outline: as §1

Gefitinib = compound: COc1cc2ncnc(Nc3ccc(F)c(Cl)c3)c2cc1OCCCN1CCOCC1 [Gefitinib]; conditions: max 10 µM
Outline: as §1

Alisertib = compound: COc1cc(Nc2ncc3c(n2)-c2ccc(Cl)cc2C(c2c(F)cccc2OC)=NC3)ccc1C(=O)O [Alisertib]; conditions: max 10 µM
Outline: as §1

SG3199 = compound: CC1=CN2[C@@H](C1)C=NC3=CC(=C(C=C3C2=O)OC)OCCCCCOC4=C(C=C5C(=C4)N=C[C@@H]6CC(=CN6C5=O)C)OC [SG3199]; conditions: max 0.001 µM
Outline: as §1

Savolitinib = compound: C[C@@H](c1ccc2nccn2c1)n1nnc2ncc(-c3cnn(C)c3)nc21 [Savolitinib]; conditions: max 1 µM
Outline: as §1

Lapatinib = compound: CS(=O)(=O)CCNCc1ccc(-c2ccc3ncnc(Nc4ccc(OCc5cccc(F)c5)c(Cl)c4)c3c2)o1 [Lapatinib]; conditions: max 10 µM
Outline: as §1

SN-38 = compound: CCc1c2c(nc3ccc(O)cc13)-c1cc3c(c(=O)n1C2)COC(=O)[C@]3(O)CC [SN-38]; conditions: max 0.3 µM
Outline: as §1

AZD0156 = compound: CN(C)CCCOc1ccc(-c2ccc3ncc4c(c3c2)n(C2CCOCC2)c(=O)n4C)cn1 [AZD0156]; conditions: max 3 µM
Outline: as §1

AZD6738 = compound: C[C@@H]1COCCN1C2=NC(=NC(=C2)C3(CC3)[S@](=N)(=O)C)C4=C5C=CNC5=NC=C4 [AZD6738]; conditions: max 10 µM
Outline: as §1

Palbociclib = compound: CC(=O)c1c(C)c2cnc(Nc3ccc(N4CCNCC4)cn3)nc2n(C2CCCC2)c1=O [Palbociclib]; conditions: max 10 µM
Outline: as §1

Crizotinib = compound: C[C@@H](Oc1cc(-c2cnn(C3CCNCC3)c2)cnc1N)c1c(Cl)ccc(F)c1Cl [Crizotinib]; conditions: max 10 µM
Outline: as §1

AZD5153 = compound: COc1nnc2ccc(N3CCC(c4ccc(OCCN5CCN(C)C(=O)[C@H]5C)cc4)CC3)nn12 [AZD5153]; conditions: max 1 µM
Outline: as §1

Olaparib = compound: O=C(c1cc(Cc2n[nH]c(=O)c3ccccc23)ccc1F)N1CCN(C(=O)C2CC2)CC1 [Olaparib]; conditions: max 10 µM
Outline: as §1

AZD7648 = compound: Cc1cc2ncnn2cc1Nc1ncc2c(n1)n(C1CCOCC1)c(=O)n2C [AZD7648]; conditions: max 10 µM
Outline: as §1

Trametinib = compound: CC(=O)Nc1cccc(-n2c(=O)n(C3CC3)c(=O)c3c(Nc4ccc(I)cc4F)n(C)c(=O)c(C)c32)c1 [Trametinib]; conditions: max 1 µM
Outline: as §1

Cell Line | IC50, cell viability 72 h (Capivasertib) | IC50, cell viability 72 h (Selumetinib) | IC50, cell viability 72 h (AZD2811) | IC50, cell viability 72 h (Venetoclax) | IC50, cell viability 72 h (Prexasertib) | IC50, cell viability 72 h (AZD4320) | IC50, cell viability 72 h (AZD5991) | IC50, cell viability 72 h (AZD8186) | IC50, cell viability 72 h (Dasatinib) | IC50, cell viability 72 h (Taselisib) | IC50, cell viability 72 h (AZD1775) | IC50, cell viability 72 h (AZD1390) | IC50, cell viability 72 h (Doxorubicin) | IC50, cell viability 72 h (Gefitinib) | IC50, cell viability 72 h (Alisertib) | IC50, cell viability 72 h (SG3199) | IC50, cell viability 72 h (Savolitinib) | IC50, cell viability 72 h (Lapatinib) | IC50, cell viability 72 h (SN-38) | IC50, cell viability 72 h (AZD0156) | IC50, cell viability 72 h (AZD6738) | IC50, cell viability 72 h (Palbociclib) | IC50, cell viability 72 h (Crizotinib) | IC50, cell viability 72 h (AZD5153) | IC50, cell viability 72 h (Olaparib) | IC50, cell viability 72 h (AZD7648) | IC50, cell viability 72 h (Trametinib)
HEC-1 (Endometrial Carcinoma) | > 10000 nM | > 10000 nM | > 1000 nM | > 1000 nM | 493 nM | > 1000 nM | > 1000 nM | > 3000 nM | > 2000 nM | > 10000 nM | 1810 nM | > 300 nM | > 1000 nM | > 10000 nM | > 10000 nM | > 1 nM | > 1000 nM | > 10000 nM | > 300 nM | > 3000 nM | > 10000 nM | > 10000 nM | > 10000 nM | 881 nM | > 10000 nM | > 10000 nM | > 1000 nM
KE-37 (T-Lymphoblastic Leukemia) | 1100 nM | > 10000 nM | 20.5 nM | > 1000 nM | 4.58 nM | 28.3 nM | 267 nM | > 3000 nM | > 2000 nM | 3110 nM | 129 nM | > 300 nM | 53.8 nM | > 10000 nM | 125 nM | > 1 nM | > 1000 nM | 8530 nM | 1.86 nM | > 3000 nM | 403 nM | 3850 nM | 3220 nM | 210 nM | > 10000 nM | 8540 nM | > 1000 nM
LB996-RCC (Kidney Carcinoma) | 5320 nM | > 10000 nM | > 1000 nM | > 1000 nM | 167 nM | > 1000 nM | > 1000 nM | > 3000 nM | 188 nM | 1740 nM | 403 nM | > 300 nM | 625 nM | > 10000 nM | 4590 nM | > 1 nM | > 1000 nM | > 10000 nM | 8.64 nM | > 3000 nM | 9940 nM | > 10000 nM | > 10000 nM | > 1000 nM | > 10000 nM | > 10000 nM | > 1000 nM
